# Measured values taken from article PMC5587909, “Inhibition of the ATP Synthase Eliminates the Intrinsic Resistance of Staphylococcus aureus towards Polymyxins” (mBio, 2017).
# Columns and labels:
# S. aureus = settings: cited from earlier work
# [1] = test system: S. aureus JE2 graR mutant; assay type: cell-based, Staphylococcus aureus
# Excerpt: (§1) The strains used in this study include S. aureus strain JE2 (plasmid-cured derivative of USA300 LAC) and all derivative strains within the Nebraska Transposon Mutant Library (NTML), consisting of 1,920 unique transposon mutants with inactivation of nonessential genes ([15]). The bursa aurealis transposon used to create the collection contains the resistance cassette ermB, which confers resistance to erythromycin ([15]). Additionally we used S. aureus SA113 and two derivatives, SA113 ΔdltA ([9]) and SA113 ΔmprF ([10]). All bacterial strains were cultured at 37°C in tryptic soy broth (TSB) or on tryptic soy agar (TSA), with antimicrobial agents added as indicated. Two methods have been employed to determine MICs to various antimicrobial agents. (i) A 2-fold broth microdilution assay in TSB (100 µl) with an initial inoculum of approximately 5 × 10^5 cells/ml was employed to determine the MICs of polymyxin B sulfate (Sigma), gallidermin (Santa Cruz Biotechnology), nisin (Sigma), bacitracin (Sigma), and LL-37 (Isca Biochemicals). (ii) An Etest (BioMérieux) performed on TSA plates was employed to determine MICs for polymyxin B, colistin, ciprofloxacin, oxacillin, linezolid, gentamicin, vancomycin, and daptomycin. The MIC was determined upon incubation at 37°C for 22 h. When indicated, the Etest (BioMérieux) was performed on Mueller-Hinton agar plates (cation adjusted for calcium and magnesium).
# S. aureus JE2 (WT) [2] = assay type: cell-based, Staphylococcus aureus; settings: 2-fold broth microdilution in TSB (100 µl), inoculum approx. 5 × 10^5 cells/ml, 37°C, 22 h
# Excerpt: as §1
# [3] = test system: S. aureus JE2 vraF mutant; assay type: cell-based, Staphylococcus aureus
# Excerpt: as §1
# [4] = test system: S. aureus JE2 vraG mutant; assay type: cell-based, Staphylococcus aureus; settings: 2-fold broth microdilution in TSB (100 µl), inoculum approx. 5 × 10^5 cells/ml, 37°C, 22 h
# Excerpt: as §1
# [5] = test system: S. aureus JE2 atpA mutant; assay type: cell-based, Staphylococcus aureus; settings: 2-fold broth microdilution in TSB (100 µl), inoculum approx. 5 × 10^5 cells/ml, 37°C, 22 h
# Excerpt: as §1
# [6] = test system: mitochondrial ATP synthase; settings: cited from earlier work
# S. aureus JE2 (WT) [7] = experiment: Kill curve experiment, polymyxin B with or without oligomycin A; assay type: cell-based, Staphylococcus aureus; settings: WT JE2 in TSB; oligomycin A alone at 8 μg/ml
# Excerpt: The ATP synthase is a well-described protein complex, and multiple inhibitors have been identified that interfere with its function—e.g., the macrolide oligomycin A ([32]). […] The combinatory efficacy of PMB and oligomycin A is similar to the observed killing efficacy of PMB against the atpA mutant.
# FIG 4 Improved killing efficacy of PMB upon inhibition of the ATP synthase. […] The data represent the average from three measurements, with error bars showing 95% confidence intervals.
# From overnight cultures of S. aureus JE2 and the derivative atpA mutant, 100 μl was diluted into 900 μl fresh TSB medium in a Falcon tube and grown for 1 h for the cells to reach the early exponential phase. After 1 h, the cultures were diluted into 10 ml fresh TSB medium in 100-ml Erlenmeyer flasks, reaching an initial cell count of approximately 10^6 cells/ml. Oligomycin A (Sigma) was added to flasks as indicated at a concentration of 8 μg/ml. […] CFU were determined on TSA plates before addition of oligomycin A (time zero [T0]), before addition of polymyxin B (time 30 min [T30]), and every hour for the following 4 h.
compound,measurement,setting,value
"COc1nc2ccc(Br)cc2cc1[C@@H](c1ccccc1)[C@@](O)(CCN(C)C)c1cccc2ccccc12 [Bedaquiline, bedaquiline]",activity against S. aureus,S. aureus,limited or no activity
CC[C@H](C)[C@H](NC(=O)[C@H](CCCCN)NC(=O)[C@H](CCC(=O)O)NC(=O)[C@H](CCCCN)NC(=O)[C@H](CO)NC(=O)[C@H](CCCCN)NC(=O)[C@H](CCCNC(=N)N)NC(=O)[C@H](Cc1ccccc1)NC(=O)[C@H](Cc1ccccc1)NC(=O)[C@H](CC(=O)O)NC(=O)CNC(=O)[C@H](CC(C)C)NC(=O)[C@@H](N)CC(C)C)C(=O)NCC(=O)N[C@@H](CCCCN)C(=O)N[C@@H](CCC(=O)O)C(=O)N[C@@H](Cc1ccccc1)C(=O)N[C@@H](CCCCN)C(=O)N[C@@H](CCCNC(=N)N)C(=O)N[C@H](C(=O)N[C@H](C(=O)N[C@@H](CCC(N)=O)C(=O)N[C@@H](CCCNC(=N)N)C(=O)N[C@H](C(=O)N[C@@H](CCCCN)C(=O)N[C@@H](CC(=O)O)C(=O)N[C@@H](Cc1ccccc1)C(=O)N[C@@H](CC(C)C)C(=O)N[C@@H](CCCNC(=N)N)C(=O)N[C@@H](CC(N)=O)C(=O)N[C@@H](CC(C)C)C(=O)N[C@H](C(=O)N1CCC[C@H]1C(=O)N[C@@H](CCCNC(=N)N)C(=O)N[C@H](C(=O)N[C@@H](CCC(=O)O)C(=O)N[C@@H](CO)C(=O)O)[C@@H](C)O)C(C)C)[C@@H](C)CC)C(C)C)[C@@H](C)CC [LL-37],"MIC, graR","[1]; 2-fold broth microdilution in TSB (100 µl), inoculum approx. 5 × 10^5 cells/ml, 37°C, 22 h, graR mutant",64 µg/mL
same,fold increased sensitivity relative to WT,"[1]; graR mutant vs WT JE2, broth microdilution in TSB",at least 2 fold
same,"MIC, WT",S. aureus JE2 (WT) [2],>128 µg/mL
same,"MIC, vraF","[3]; 2-fold broth microdilution in TSB (100 µl), inoculum approx. 5 × 10^5 cells/ml, 37°C, 22 h, vraF mutant",64 µg/mL
same,fold increased sensitivity relative to WT,"[3]; vraF mutant vs WT JE2, broth microdilution in TSB",at least 2 fold
same,"MIC, vraG",[4],128 µg/mL
same,"MIC, atpA",[5],>128 µg/mL
oligomycin A,inhibition of the mitochondrial ATP synthase (nonselective),[6],inhibits the mitochondrial ATP synthase
same,killing efficacy (CFU over time),S. aureus JE2 (WT) [7],did not display any killing efficacy
